The supplement of paper PMC3974653
Structures can show the parent of a compound that is named as a salt.

Tested on: MTT (mouse pheochromocytoma)
Test: IC50 of cell viability (ATP content)
Conditions: (24 or 48 h)
Method in brief: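 Each well of a white 1536-well plate received 5 µl of MTT mouse pheochromocytoma cells at 200,000 cells/ml in DMEM containing 5% FBS and 1% horse serum. After overnight culture at 37°C, 5% CO2, cells were exposed for 24 or 48 hrs to 23 nl of library compound in DMSO, pinned at 8 final concentrations from 0.5 nM to 46 µM. CellTiter-Glo luminescence was read after 15 minutes, and IC50 was obtained from a four-parameter logistic fit of signals normalised to positive-control and DMSO wells.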

C[n+]1ccccc1/C=N\O [Pralidoxime chloride]
IC50 of cell viability: > 46 µM

CCCCOc1ccc(OCCCN2CCOCC2)cc1 [Pramoxine hydrochloride]
IC50 of cell viability: > 46 µM

O=C(N[C@@H]1N=C(c2ccccc2F)c2cccc3c2N(CC3)C1=O)c1cc2ccccc2[nH]1 [Pranazepide]
IC50 of cell viability: > 46 µM

C[C@]12CC[C@H]3[C@@H](C\C=C/4C[C@@H](O)CC[C@]34C)[C@@H]1CCC2=O [Prasterona]
IC50 of cell viability: > 46 µM

CC(=O)Oc1cc2c(s1)CCN(C(C(=O)C1CC1)c1ccccc1F)C2 (centres undefined) [Prasugrel Hydrochloride]
IC50 of cell viability: > 46 µM

COc1ccc(C(=O)c2c(C)n(CCN3CCOCC3)c3ccccc23)cc1 [Pravadoline maleate]
IC50 of cell viability: > 46 µM

O=C(C1CCCCC1)N1CC(=O)N2CCc3ccccc3[C@@H]2C1 [Praziquantel]
IC50 of cell viability: > 46 µM

COc1cc2nc(N3CCN(C(=O)c4ccco4)CC3)nc(N)c2cc1OC [Prazosin]
IC50 of cell viability: > 46 µM

CCOC(=O)O[C@@]1(CC[C@@H]2[C@@H]3CC\C4=C\C(=O)\C=C/[C@@]4(C)[C@H]3[C@H](O)C[C@@]12C)C(=O)COC(=O)CC [Prednicarbate]
IC50 of cell viability: > 46 µM

CC12C=CC(=O)C=C1CCC1C2C(O)CC2(C)C1CCC2(O)C(=O)COC(=O)CCC(=O)O (centres undefined) [Prednisolone 21-hemisuccinate]
IC50 of cell viability: > 46 µM

C[C@]12CC(=O)[C@H]3[C@@H](CC\C4=C\C(=O)\C=C/[C@]34C)[C@@H]1CC[C@]2(O)C(=O)CO [Prednisone]
IC50 of cell viability: > 46 µM

CC(O)C1CCC2C3CCC4CC(O)CCC4(C)C3CCC12C (centres undefined) [Pregnandiol]
IC50 of cell viability: > 46 µM

CC(=O)[C@H]1CC[C@H]2C3CC=C4C[C@@H](O)CC[C@]4(C)C3CC[C@]12C (some centres undefined) [Pregnenolona]
IC50 of cell viability: > 46 µM

C[C@@H](Cc1ccccc1)NCCC(c1ccccc1)c1ccccc1.C[C@H](O)C(=O)O [Prenylamine lactate]
IC50 of cell viability: > 46 µM

CCCN[C@@H](C)C(=O)Nc1ccccc1C [Prilocaine hydrochloride]
IC50 of cell viability: > 46 µM

COc1cc(N[C@@H](C)CCCN)c2ncccc2c1 [Primaquine diphosphate]
IC50 of cell viability: > 46 µM

CCCN(CCC)[S+](=O)([O-])c1ccc(C(=O)O)cc1 [Probenecid]
IC50 of cell viability: > 46 µM

CC(C)(Sc1cc(C(C)(C)C)c(O)c(C(C)(C)C)c1)Sc1cc(C(C)(C)C)c(O)c(C(C)(C)C)c1 [Probucol]
IC50 of cell viability: > 46 µM

CCN(CC)CCOC(=O)c1ccc(N)cc1 [Procaine hydrochloride]
IC50 of cell viability: > 46 µM

CNNCc1ccc(C(=O)NC(C)C)cc1 [Procarbazine hydrochloride]
IC50 of cell viability: > 46 µM

CN1CCN(CCCN2c3ccccc3Sc3ccc(Cl)cc32)CC1 [Prochlorperazine dimaleate]
IC50 of cell viability: > 46 µM

O[C@@](CCN1CCCC1)(c1ccccc1)C1CCCCC1 [Procyclidine hydrochloride]
IC50 of cell viability: > 46 µM

CC(=O)C1CCC2C3CC\C4=C\C(=O)CCC4(C)C3CCC12C (centres undefined) [Progestin]
IC50 of cell viability: > 46 µM

CCCN(CCC)C(=O)C(CCC(=O)OCCCN1CCN(CCOC(=O)Cc2c(C)n(C(=O)c3ccc(Cl)cc3)c3ccc(OC)cc23)CC1)NC(=O)c1ccccc1 (centres undefined) [Proglumetacin maleate]
IC50 of cell viability: > 46 µM

CCCN(CCC)C(=O)[C@@H](CCC(=O)O)NC(=O)c1ccccc1 [Proglumide]
IC50 of cell viability: > 46 µM

CN(C)CCCN1c2ccccc2Sc2ccccc21 [Promazine hydrochloride]
IC50 of cell viability: > 46 µM

N=C(N)c1ccc(OCCCOc2ccc(C(=N)N)cc2)cc1 [Propamidine]
IC50 of cell viability: > 46 µM

CCCOC(=O)Cc1ccc(OCC(=O)N(CC)CC)c(OC)c1 [Propanidid]
IC50 of cell viability: > 46 µM

CCCOc1ccc(C(=O)OCCN(CC)CC)cc1N [Proparacaine hydrochloride]
IC50 of cell viability: > 46 µM

CCC(Oc1ccccc1)C(=O)NC1C(=O)N2C1SC(C)(C)C2C(=O)[O-] (centres undefined) [Propicillin]
IC50 of cell viability: > 46 µM

CCC(=O)[O-] [Propionic acid]
IC50 of cell viability: > 46 µM

CCCOc1cc(N)ccc1C(=O)OCCN(CC)CC [Propoxycaine hydrochloride]
IC50 of cell viability: > 46 µM

CCCOC(=O)c1cc(O)c(O)c(O)c1 [Propyl gallate]
IC50 of cell viability: > 46 µM

CCCOC(=O)c1ccc(O)cc1 [Propyl-4-hydroxybenzoate]
IC50 of cell viability: > 46 µM

CNC(C)CC1CCCCC1 (centres undefined) [Propylhexadrine]
IC50 of cell viability: > 46 µM

CCCOC(=O)c1ccc(O)cc1 [Propylparaben]
IC50 of cell viability: > 46 µM

C[C@@H]1O[C@@H](O[C@H]\2CC[C@]\3(C)[C@@H]4CC[C@]5(C)[C@@H](CC[C@@]5(O)[C@H]4CCC3=C2)C/6=C/OC(=O)/C=C6)[C@H](O)[C@H](O)[C@@H]1O [Proscillaridin A]
IC50 of cell viability: > 46 µM

C[N+]1(C)[C@@H]2C[C@H](OC(=O)[C@@H](CO)c3ccccc3)C[C@@H]1[C@H]1O[C@H]12 [Proscomide]
IC50 of cell viability: > 46 µM

CNCCCC1C2=C(C=CC=C2)\C=C/C3=C1C=CC=C3 [Protriptyline hydrochloride]
IC50 of cell viability: > 46 µM

CC[C@H](c1ccccc1)c1noc(CCN(CC)CC)n1 [Proxazole citrate]
IC50 of cell viability: > 46 µM

C[C@H](O)Cn1cnc2c1c(=O)n(C)c(=O)n2C [Proxyphylline]
IC50 of cell viability: > 46 µM

Cc1oc(=O)oc1CN1CCN(c2cc3c(cc2F)c(=O)c(C(=O)O)c2n3C(C)S2)CC1 (centres undefined) [Prulifloxacin]
IC50 of cell viability: > 46 µM

CN(C)CCc1c[nH]c2cccc(O)c12 [Psilocin]
IC50 of cell viability: > 46 µM

CN(C)CCc1c[nH]c2cccc(OP(=O)(O)O)c12 [Psilocybin]
IC50 of cell viability: > 46 µM

CN1CCCN=C1/C=C\c1cccs1.O=C(O)[C@@H](O)[C@@H](O)C(=O)O [Pyrantel tartrate]
IC50 of cell viability: > 46 µM

NC(=O)c1cnccn1 [Pyrazinamide]
IC50 of cell viability: > 46 µM

Cc1ncc(CO)c(CN)c1O [Pyridoxamine dichlorohydrate]
IC50 of cell viability: > 46 µM

Cc1ncc(CO)c(CO)c1O [Pyridoxine]
IC50 of cell viability: > 46 µM

CCOC(=O)C(CCc1ccccc1)NC(C)C(=O)N1Cc2ccccc2CC1C(=O)O.Cl (centres undefined) [QUINAPRIL HYDROCHLORIDE]
IC50 of cell viability: > 46 µM

C=CC1CN2CCC1CC2[C@@H](O)c1ccnc2ccc(OC)cc12 (some centres undefined) [QUINIDINE GLUCONATE]
IC50 of cell viability: > 46 µM

C=C[C@H]1CN2CCC1C[C@H]2[C@H](O)c1ccnc2ccc(OC)cc12 (some centres undefined) [QUININE ASCORBATE]
IC50 of cell viability: > 46 µM

C=CC1C[N@]2CCC1CC2C(OC(=O)OCC)c1ccnc2ccc(OC)cc12 (some centres undefined) [QUININE ETHYL CARBONATE]
IC50 of cell viability: > 46 µM

c1ccc2nc(N3CCNCC3)ccc2c1 [QUIPAZINE]
IC50 of cell viability: > 46 µM

C[C@@H](C(=O)O)c1ccc(C2CCCCC2)c2ccccc12 [Quadrisol]
IC50 of cell viability: > 46 µM

CCc1ncnc2cc(OC)c(OC)cc12 [Quazodine]
IC50 of cell viability: > 46 µM

O.O.OC1=CC2=C(C(=C1)O)C(=O)\C(=C(/O2)C3=CC(=C(O)C=C3)O)O [Quercetine dihydrate]
IC50 of cell viability: > 46 µM

OC(c1ccccc1)(c1ccccc1)C1CN2CCC1CC2 (centres undefined) [Quifenadine]
IC50 of cell viability: > 46 µM

CCN(CC)CCC[C@H](C)Nc1c2ccc(Cl)cc2nc2ccc(OC)cc12.Cl.Cl.O.O [Quinacrine dihydrochloride dihydrate]
IC50 of cell viability: > 46 µM

[O-][n+]1cc[n+]([O-])c2ccccc21 [Quindoxin]
IC50 of cell viability: > 46 µM

CC[C@H]1NC(=O)c2cc([S+](N)(=O)[O-])c(Cl)cc2N1 [Quinethazone]
IC50 of cell viability: > 46 µM

C=C[C@H]1CN2CCC1C[C@H]2[C@H](O)c1ccnc2ccc(OC)cc12.C=C[C@H]1CN2CCC1C[C@H]2[C@H](O)c1ccnc2ccc(OC)cc12.O.O.O=[S+]([O-])(O)O (some centres undefined) [Quinine hemisulfate salt monohydrate]
IC50 of cell viability: > 46 µM

CCCN1CCC[C@H](c2cccc(O)c2)C1.Cl [R(+)-3PPP hydrochloride]
IC50 of cell viability: > 46 µM

CCN(CC)C(=O)N[C@@H]1C[C@@H]2c3cccc4[nH]cc(c34)C[C@H]2N(C)C1 [R(+)-TERGURIDE]
IC50 of cell viability: > 46 µM

COc1ccc(CCNC[C@@H](O)c2ccc(O)cc2)cc1OC [R(-)-Denopamine]
IC50 of cell viability: > 46 µM

CC(C)NC[C@@H](O)COc1ccc(CC(N)=O)cc1 [R-(+)-ATENOLOL]
IC50 of cell viability: > 46 µM

CC(C)NC[C@@H](O)COc1cccc2ccccc12 [R-(+)-PROPRANOLOL]
IC50 of cell viability: > 46 µM

C=CCC1(C(C)CCC)C(=O)NC(=O)NC1=O (stereo not drawn) [R-(+)-Secobarbital]
IC50 of cell viability: > 46 µM

COCCCOc1ccnc(C[S+]([O-])c2nc3ccccc3[n-]2)c1C (centres undefined) [RABEPRAZOLE SODIUM]
IC50 of cell viability: > 46 µM

CC(CCc1ccc(O)cc1)NCC(O)c1ccc(O)cc1 (centres undefined) [RACTOPAMINE HYDROCHLORIDE]
IC50 of cell viability: > 46 µM

C=C1NC(=O)c2cc(CN(C)c3ccc(C(=O)N[C@@H](CCC(=O)O)C(=O)O)s3)ccc2N1 [RALTITREXED]
IC50 of cell viability: > 46 µM

O=C(O)CCn1c2c(c3ccccc31)C[C@H](N[S+](=O)([O-])c1ccc(F)cc1)CC2 [RAMATROBAN]
IC50 of cell viability: > 46 µM

CCC(=O)NCCC1CCc2ccc3c(c21)CCO3 (centres undefined) [RAMELTEON]
IC50 of cell viability: > 46 µM

Cl.CC(C)NC/1=C(C)/N(C)N(C1=O)C2=CC=CC=C2 [RAMIFENAZONE]
IC50 of cell viability: > 46 µM

Cn1cc(C(=O)[C@@H]2CCc3[nH]cnc3C2)c2ccccc21 [RAMOSETRON HYDROCHLORIDE]
IC50 of cell viability: > 46 µM
